# Measurements as given in US9732094B2, “Arylquinazolines” (Merck Patent GmbH, priority 2013, dated 2017).
# Like-named read-outs stand apart in the source and are kept apart here.
# How the values were obtained:
# DNA-PK = DNA-PK (Homo sapiens (Human), UniProt P78527); test: DNA-PK assay (biochemical), flashplate 33P-ATP kinase assay
# Procedure: A) DNA-PK Assay (Biochemical)
# The kinase assay was carried out in streptavidin-coated […] microtitre flashplates. […] The reaction was stopped using 50 μl/well of 200 mM EDTA. After incubation for a further 30 min at room temperature, the liquid was removed. Each well was washed three times with 100 μl of 0.9% saline solution. A nonspecific reaction (blank value) was determined using 10 μM of an innate kinase inhibitor. The radioactivity measurement was carried out using a TopCount. IC50 values were calculated in RS1.
# [1] = target: DNA-PK phosphorylation at serine 2056 (Homo sapiens (Human), UniProt P78527); test: DNA-PK phosphorylation at serine 2056 (cellular), bleomycin-treated HCT116 cells, ELISA; type: cell-based
# Procedure: HCT116 cells were cultivated at 37° C. and 10% CO2 in MEM alpha medium with 10% of foetal calf serum and 2 mM glutamine. The cells were detached from the base of the culture vessels with the aid of trypsin/EDTA, centrifuged off in centrifuge tubes, taken up in fresh medium, and the cell density was determined. 100,000 cells were sown in 1 ml of culture medium per cavity of a 24-well cell culture plate and cultivated overnight. Next day, 10 μM bleomycin (DNA intercalator and inductor of DNA double-strand breaks) and test substances in fresh culture medium were added to the cells, and these were cultivated for a further six hours. […] The 96-well ELISA plates were subsequently treated with a detection antibody (Abcam ab79444: total DNA-PK) and a streptavidin-HRP conjugate. The development of the enzymatic reaction was carried out with the aid of a chemiluminescent reagent, the chemiluminescence was measured with the aid of a Mithras LB940. The signals with the phospho-DNA-PK-specific antibody were standardised to the signal with the antibody against the total protein DNA-PKc. […] The DMSO control was used as blank.
# Kv11.1 (hERG) = Kv11.1 (hERG) (Homo sapiens (Human), UniProt Q12809); test: Kv11.1 (hERG) ion channel activity (patch clamp assay), HEK293 cells transfected with hERG gene
# Sequence of Kv11.1 (hERG) (Q12809 whole entry): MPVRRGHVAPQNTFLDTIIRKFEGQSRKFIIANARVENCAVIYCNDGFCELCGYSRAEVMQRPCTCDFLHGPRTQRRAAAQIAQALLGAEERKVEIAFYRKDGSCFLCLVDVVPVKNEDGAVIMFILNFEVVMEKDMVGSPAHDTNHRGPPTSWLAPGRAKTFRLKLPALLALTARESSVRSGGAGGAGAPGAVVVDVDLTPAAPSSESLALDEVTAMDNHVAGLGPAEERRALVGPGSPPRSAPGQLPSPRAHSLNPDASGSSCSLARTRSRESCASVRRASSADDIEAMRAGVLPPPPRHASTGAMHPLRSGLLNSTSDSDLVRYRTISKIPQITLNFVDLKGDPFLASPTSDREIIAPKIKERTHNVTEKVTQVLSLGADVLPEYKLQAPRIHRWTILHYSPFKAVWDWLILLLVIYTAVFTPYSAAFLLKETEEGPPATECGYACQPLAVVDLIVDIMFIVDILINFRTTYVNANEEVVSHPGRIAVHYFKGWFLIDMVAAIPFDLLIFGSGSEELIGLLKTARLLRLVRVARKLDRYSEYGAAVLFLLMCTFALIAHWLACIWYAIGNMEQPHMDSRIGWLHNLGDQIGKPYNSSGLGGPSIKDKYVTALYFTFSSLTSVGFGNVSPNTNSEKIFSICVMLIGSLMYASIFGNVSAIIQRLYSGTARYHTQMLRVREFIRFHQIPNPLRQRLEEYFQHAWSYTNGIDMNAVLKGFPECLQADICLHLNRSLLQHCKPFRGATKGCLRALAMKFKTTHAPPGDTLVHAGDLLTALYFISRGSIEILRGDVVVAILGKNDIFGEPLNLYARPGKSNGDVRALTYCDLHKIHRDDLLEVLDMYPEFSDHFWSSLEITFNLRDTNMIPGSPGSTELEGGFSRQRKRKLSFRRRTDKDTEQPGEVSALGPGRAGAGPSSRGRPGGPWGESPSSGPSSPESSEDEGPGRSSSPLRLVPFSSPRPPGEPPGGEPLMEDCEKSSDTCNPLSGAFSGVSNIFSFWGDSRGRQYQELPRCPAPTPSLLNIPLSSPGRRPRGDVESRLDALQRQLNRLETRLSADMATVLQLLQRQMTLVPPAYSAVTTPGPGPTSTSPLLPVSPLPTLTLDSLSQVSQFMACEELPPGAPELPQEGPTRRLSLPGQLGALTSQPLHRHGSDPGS
# [2] = Table 5, HCT116 cells, read-out: IC50 pDNA-PK
# [3] = cellular, HCT116 cells, 10 μM bleomycin, six hours, read-out: IC50 pDNA-PK
# [4] = read-out: Ki [Kv1.11 hERG], patch clamp, HEK293 transfected with hERG gene
# [5] = human, HEK293 cells stably transfected with the hERG gene, Ki [Kv1.11 hERG], patch clamp, HEK293 transfected with hERG gene
# [6] = Ki [Kv1.11 hERG], patch clamp, HEK293 transfected with hERG gene
# [7] = Ki [Kv1.11 hERG], hERG patch clamp assay (cells without asterisk)
# [8] = read-out: Ki [Kv1.11 hERG], Table 5
smiles,measurement,setting,value
"OC(c1ccc(F)c(-c2ncnc3cc(N4CCOCC4)sc23)c1)c1nccs1 (racemic) [Example 144, [4-fluoro-3-(6-morpholin-4-ylthieno[3,2-d]pyrimidin-4-yl)phenyl]thiazol-2-ylmethanol]",IC50,DNA-PK; Table 5,< 0.003 µM
same,IC50,[1]; [2],0.5 to 5 µM
same,Ki,"Kv11.1 (hERG); human, HEK293 cells stably transfected with the hERG gene, Ki [Kv1.11 hERG], Table 5",15 to 25 µM
"OC(c1ccc2nccn2n1)c1cc(-c2ncnc3cc(N4CCOCC4)ccc23)c(F)cc1F (single isomer, unassigned) [Example 20, [2,4-Difluoro-5-(7-morpholin-4-yl-quinazolin-4-yl)phenyl]-imidazo[1,2-b]pyridazin-6-ylmethanol]",IC50,"DNA-PK; enzymatic, 5 μM ATP",0.007 to 0.03 µM
same,IC50,[1]; [3],5 to 10 µM
same,Ki,Kv11.1 (hERG); [4],> 25 µM
"OC(c1ccc2nccn2n1)c1cc(-c2ncnc3cc(N4CCOCC4)ccc23)c(F)cc1F (single isomer, unassigned) [Example 21, [2,4-Difluoro-5-(7-morpholin-4-yl-quinazolin-4-yl)phenyl]-imidazo[1,2-b]pyridazin-6-ylmethanol]",IC50,"DNA-PK; enzymatic, 5 μM ATP",< 0.003 µM
same,IC50,[1]; [3],< 0.5 µM
same,Ki,Kv11.1 (hERG); [4],> 25 µM
"OC(c1ccc(F)c(-c2ncnc3cc(N4CCOCC4)sc23)c1)c1nccnc1Cl (single isomer, unassigned) [Example 23, (3-Chloro-pyrazin-2-yl)-[4-fluoro-3-(6-morpholin-4-yl-thieno-[3,2-d}pyrimidin-4-yl)-phenyl]methanol]",IC50,"DNA-PK; enzymatic, 5 μM ATP",0.007 to 0.03 µM
same,IC50,[1]; [3],5 to 10 µM
same,Ki,Kv11.1 (hERG); [4],> 25 µM
"OC(c1ccc(F)c(-c2ncnc3cc(N4CCOCC4)sc23)c1)c1nccnc1Cl (single isomer, unassigned) [Example 24, (3-Chloro-pyrazin-2-yl)-[4-fluoro-3-(6-morpholin-4-yl-thieno-[3,2-d}pyrimidin-4-yl)-phenyl]methanol]",IC50,"DNA-PK; enzymatic, 5 μM ATP",< 0.003 µM
same,IC50,[1]; [3],< 0.5 µM
same,Ki,Kv11.1 (hERG); [5],15 to 25 µM
"OC(c1cccnn1)c1cc(-c2ncnc3cc(N4CCOCC4)ccc23)c(F)cc1Cl (single isomer, unassigned) [Example 29, [2-Chloro-4-fluoro-5-(7-morpholin-4-yl-quinazolin-4-yl)phenyl]-pyridazin-3-ylmethanol]",IC50,"DNA-PK; enzymatic, 5 μM ATP",0.007 to 0.03 µM
same,IC50,[1]; [3],10 to 30 µM
same,Ki,Kv11.1 (hERG); [5],15 to 25 µM
"Cn1nc(C(O)c2cc(-c3ncnc4cc(N5CCOCC5)ccc34)c(F)cc2Cl)ccc1=O (single isomer, unassigned) [Example 44, 6-{[2-Chloro-4-fluoro-5-(7-morpholin-4-yl-quinazolin-4-yl)phenyl]-hydroxymethyl}-2-methyl-2H-pyridazin-3-one]",IC50,"DNA-PK; enzymatic, 5 μM ATP",0.007 to 0.03 µM
same,IC50,[1]; [3],5 to 10 µM
same,Ki,Kv11.1 (hERG); [6],15 to 25 µM
"[2H]C1([2H])OC([2H])([2H])C([2H])([2H])N(c2ccc3c(-c4cc(C(O)c5ccc(OC)nn5)c(Cl)cc4F)ncnc3c2)C1([2H])[2H] (single isomer, unassigned) [Example 239, [2-Chloro-4-fluoro-5-[7-(2,2.3,3,5,5,6,6-octadeuteriomorpholin-4-yl)quinazolin-4-yl]phenyl]-(6-methoxypyridazin-3-yl)methanol]",Ki,Kv11.1 (hERG); [7],15 to 25 µM
"OC(c1ccc(OC2COC2)nn1)c1cc(-c2ncnc3cc(N4CCOCC4)ccc23)c(F)cc1Cl (stereo not shown) [Example 100, [2-Chloro-4-fluoro-5-(7-morpholin-4-yl-quinazolin-4-yl)-phenyl]-[6-(oxetan-3-yloxy)pyridazin-3-yl)-methanol]",IC50,[1]; [3],< 0.5 µM
same,Ki,Kv11.1 (hERG); [6],10 to 15 µM
"COc1ccc(C(O)c2cc(-c3ncnc4cc(N5CCOCC5)ccc34)c(F)cc2F)nn1 (stereo not shown) [Example 131, [2,4-Difluoro-5-(7-morpholin-4-yl-quinazolin-4-yl)-phenyl]-(6-methoxy-pyridazin-3-yl)-methanol]",Ki,Kv11.1 (hERG); [6],15 to 25 µM
"COc1ccc([C@H](O)c2cc(-c3ncnc4cc(N5CCOCC5)ccc34)c(F)cc2Cl)nn1 [Example 135, (R)-[2-Chloro-4-fluoro-5-(7-morpholin-4-yl-quinazolin-4-yl)-phenyl]-(6-methoxy-pyridazin-3-yl)-methanol]",Ki,Kv11.1 (hERG); [4],> 25 µM
"COc1ccc([C@@H](O)c2cc(-c3ncnc4cc(N5CCOCC5)ccc34)c(F)cc2Cl)nn1 [Example 136, (S)-[2-Chloro-4-fluoro-5-(7-morpholin-4-yl-quinazolin-4-yl)-phenyl]-(6-methoxy-pyridazin-3-yl)-methanol]",Ki,Kv11.1 (hERG); [4],> 25 µM
"COc1ccc(C(O)c2cc(-c3ncnc4cc(N5CCOCC5)ccc34)c(F)cc2Cl)nn1 (stereo not shown) [Example 137, [2-Chloro-4-fluoro-5-(7-morpholin-4-ylquinazolin-4-yl)-phenyl]-(6-methoxy-pyridazin-3-yl)-methanol]",Ki,Kv11.1 (hERG); [6],10 to 15 µM
"CC(O)(c1cncc(-c2ncnc3cc(N4CCOCC4)ccc23)c1)c1nccs1 (stereo not shown) [Example 138, 1-[5-(7-Morpholin-4-ylquinazolin-4-yl)-pyridin-3-yl]-1-thiazol-2-ylethanol]",IC50,DNA-PK; Table 5,> 0.03 µM
same,Ki,"Kv11.1 (hERG); Ki [Kv1.11 hERG], Table 5",15 to 25 µM
"OC(c1ccc(F)c(-c2ncnc3cc(N4CCOCC4)sc23)c1)c1nccs1 (stereo not shown) [Example 145, [4-fluoro-3-(6-morpholin-4-ylthieno[3,2-d]pyrimidin-4-yl)phenyl]thiazol-2-ylmethanol]",IC50,[1]; [2],0.5 to 5 µM
same,Ki,Kv11.1 (hERG); [8],> 25 µM
"OC(c1ccc(-c2ncnc3cc(N4CCOCC4)ccc23)s1)c1nccs1 (stereo not shown) [Example 147, [5-(7-Morpholin-4-ylquinazolin-4-yl)-thiophen-2-yl]-thiazol-2-ylmethanol]",Ki,"Kv11.1 (hERG); Ki [Kv1.11 hERG], Table 5",10 to 15 µM
"OC(c1cccc(-c2ncnc3cc(N4CCOCC4)ccc23)c1)c1nccs1 (stereo not shown) [Example 149, [3-(7-Morpholin-4-ylquinazolin-4-yl)-phenyl]thiazol-2-yl-methanol]",IC50,DNA-PK; Table 5,> 0.03 µM
same,Ki,Kv11.1 (hERG); [8],> 25 µM
"CC(O)(c1cccc(-c2ncnc3cc(N4CCOCC4)ccc23)c1)c1nccs1 (stereo not shown) [Example 154, 1-[3-(7-Morpholin-4-ylquinazolin-4-yl)-phenyl]-1-thiazol-2-ylethanol]",IC50,DNA-PK; Table 5,> 0.03 µM
same,Ki,"Kv11.1 (hERG); Ki [Kv1.11 hERG], Table 5",15 to 25 µM
"OCc1csc(C(O)c2cc(-c3ncnc4cc(N5C6CCC5COC6)ccc34)c(F)cc2Cl)n1 (stereo not shown) [Example 187, {2-Chloro-4-fluoro-5-[7-(3-oxa-8-aza-bicyclo[3.2.1]oct-8-yl)quinazolin-4-yl]-phenyl}-(4-hydroxy-methylthiazol-2-yl)-methanol]",IC50,"[1]; IC50 pDNA-PK, Table 5, HCT116 cells",10 to 30 µM
same,Ki,"Kv11.1 (hERG); Ki [Kv1.11 hERG], Table 5",15 to 25 µM
"Cc1nc(C(O)c2cc(-c3ncnc4cc(N5CCOCC5)ncc34)cnc2F)sc1C (stereo not shown) [Example 192, (4,5-Dimethyl-thiazol-2-yl)-[2-fluoro-5-(7-morpholin-4-yl-pyrido[4,3-d}-pyrimidin-4-yl)-pyridin-3-yl]-methanol]",IC50,DNA-PK; Table 5,> 0.03 µM
same,Ki,"Kv11.1 (hERG); Ki [Kv1.11 hERG], Table 5",10 to 15 µM
"Cc1nc(C(O)c2cc(-c3ncnc4cc(N5CCOCC5)ccc34)cnc2F)sc1C (stereo not shown) [Example 194, (4,5-Dimethyl-thiazol-2-yl)-[2-fluoro-5-(7-morpholin-4-yl-quinazolin-4-yl)-pyridin-3-yl]-methanol]",IC50,DNA-PK; Table 5,0.007 to 0.03 µM
same,Ki,Kv11.1 (hERG); [8],> 25 µM
"Cc1csc(C(O)c2cnc(F)c(-c3ncnc4cc(N5CCOCC5)ncc34)c2)n1 (stereo not shown) [Example 195, [6-Fluoro-5-(7-morpholin-4-yl-pyrido[4,3-d}-pyrimidin-4-yl)-pyridin-3-yl]-(4-methyl-thiazol-2-yl)-methanol]",IC50,DNA-PK; Table 5,> 0.03 µM
same,Ki,"Kv11.1 (hERG); Ki [Kv1.11 hERG], Table 5",15 to 25 µM
"CC(C)(C)n1cc(C(O)c2cc(-c3ncnc4cc(N5CCOCC5)ccc34)cnc2F)cn1 (stereo not shown) [Example 198, (1-tert-Butyl-1H-pyrazol-4-yl)-[2-fluoro-5-(7-morpholin-4-yl-quinazolin-4-yl)-pyridin-3-yl]-methanol]",IC50,DNA-PK; Table 5,0.007 to 0.03 µM
same,Ki,Kv11.1 (hERG); [8],> 25 µM
"Cc1nc(C(O)c2cc(-c3ncnc4cc(N5CCOCC5)ccc34)cnc2F)sc1C (stereo not shown) [Example 206, (4,5-Dimethyl-thiazol-2-yl)-[2-fluoro-5-(7-morpholin-4-yl-quinazolin-4-yl)-pyridin-3-yl]-methanol]",IC50,DNA-PK; Table 5,> 0.03 µM
same,Ki,"Kv11.1 (hERG); Ki [Kv1.11 hERG], Table 5",15 to 25 µM
"[2H]c1c(N2CCOCC2)cc2ncnc(-c3cc(C(O)c4ccc(OC)nn4)c(Cl)cc3F)c2c1[2H] (stereo not shown) [Example 225, [2-Chloro-5-(5,6-dideuterio-7-morpholinylquinazolin-4-yl)-4-fluorophenyl]-(6-methoxypyridazin-3-yl)methanol]",Ki,Kv11.1 (hERG); [7],> 25 µM
"NC(=O)C(c1cc(-c2ncnc3cc(N4CCOCC4)ccc23)c(F)cc1Cl)c1ncnn2cccc12 (stereo not shown) [Example 309, 2-[2-Chloro-4-fluoro-5-(7-morpholin-4-yl-quinazolin-4-yl)-phenyl]-2-[3H-pyrrolo[2,1-f][1,2,4]-triazin-(4E)-ylidene]-acetamide]",IC50,"[1]; cellular DNA-PK phosphorylation at serine 2056, HCT116, read-out: IC50 pDNA-PK",10 to 30 µM
same,Ki,"Kv11.1 (hERG); read-out: Ki [Kv1.11 hERG], hERG patch clamp assay (cells without asterisk)",< 10 µM
